Measured values from US8637493B2, “Methods for treating glioblastoma” (University of Massachusetts, priority 2009, dated 2014).

Assays:
[1] = in vivo; cited from earlier work
GS7-2-NICD = experiment: Neurosphere recovery assay, GS7-2-NICD; assay type: cell-based, human; settings: constitutive NICD
Description: (§1) Neurosphere cultures were dissociated to single cell suspensions by pH dissociation followed by filtration through 40 μm screens. For the neurosphere assay, 3,000 cells/ml of defined medium were seeded in 6-well plates. Immediately after plating, cells were treated with DMSO (Research Organics, Cleveland, Ohio) carrier control, TMZ-only, DAPT-only, or TMZ+DAPT. Additional DAPT was added on days 2 and 4. Neurospheres consisting of 10 or more cells were counted under a light microscope on day 7 for the converted cell lines. Primary lines have a slightly longer doubling time and were counted on day 10. After counting the neurospheres from the initial treatment, 2 ml of fresh defined medium was added to each well. DAPT was also added once more to the DAPT-only and TMZ+DAPT samples, and the cells were incubated for an additional 7 or 10 days. Neurospheres from the recovery period were counted on day 14 or day 20. To analyze secondary neurosphere formation, cells were collected, pelleted and dissociated to a single cell suspension by the pH method. Cells from each well were re-seeded into 6-well plates with 2 ml of defined medium. The number of secondary neurospheres formed by converted cell lines and primary cultures were counted on day 21 or day 30, respectively. All recovery assays were repeated with a minimum of 6 replicate sets of time points. […]

U87NS-NICD = experiment: Neurosphere recovery assay, U87NS-NICD (constitutive Notch1 intracellular domain); assay type: cell-based, human
Description: as §1

GS7-2-pMIG = experiment: Neurosphere recovery assay, empty vector GS7-2-pMIG; assay type: cell-based, human; settings: empty vector control
Description: as §1

GS8-26 = experiment: Neurosphere formation / recovery / secondary neurosphere assay, GS8-26; assay type: cell-based, human
Description: The effect of chemotherapy on neurosphere formation was assayed in glioma neurosphere cultures. Cultures are treated with a single dose of the agent, e.g., TMZ and multiple doses of a GSI, e.g., DAPT to inhibit the Notch pathway. After the Treatment phase, the number of initial spheres (counted about 7 days after TMZ treatment) represents the number of proliferating CSC/progenitors (FIG. 1 for schematic). Recovery (counted 14 days after TMZ treatment) includes enlargement of the initial spheres and new spheres formed when CSC/progenitor cells quiescent as a result of chemotherapy resume cell proliferation. […] The cells used included U87NS, a neurosphere culture converted to neurosphere growth in defined medium from U87MG (an old Swedish line that is grown in conventional serum conditions); GS7-2, GS8-26 and GS6-22 primary neurosphere cultures that were obtained from grade IV GBM patient tumor samples and AS5-15, which was obtained from a grade III anaplastic astrocytoma.
To determine the effects of TMZ plus DAPT neurospheres, cells were plated as previously described (Mihaliak et al., Cancer Letts. 296, 168-177 (2010)). Immediately after plating, cells were treated with DMSO, DAPT-only, LY411,575 (LY)-only TMZ-only, TMZ+DAPT or TMZ+LY. The initial neurospheres were counted on day 7 for the converted cell lines and on day 10 for the slower growing primary lines. Neurosphere recovery was measured on day 14 or 20. The neurospheres were dissociated, re-plated and secondary neurosphere formation was measured on day 21 or 30.
Neurosphere cultures were dissociated to single cell suspensions by pH dissociation followed by filtration through 40 μm screens. […] Neurospheres consisting of 10 or more cells were counted under a light microscope on day 7 for the converted cell lines. Primary lines have a slightly longer doubling time and were counted on day 10. […] Neurospheres from the recovery period were counted on day 14 or day 20. […] The number of secondary neurospheres formed by converted cell lines and primary cultures were counted on day 21 or day 30, respectively. […]

Hey1 = experiment: RT-PCR / qRT-PCR of Notch target Hey1 mRNA in neurosphere cultures after DAPT; assay type: cell-based, human; settings: for decrease of Hey1 mRNA level: 48 hours after treatment, RT-PCR; for Hey1 expression (qRT-PCR): 1 μM DAPT, 48 hours
Description: TMZ concentrations for each culture were selected based on previous experiments (Mihaliak et al., Cancer Letts. 296, 168-177 (2010)) DAPT and LY concentrations were chosen for each culture based on the decrease in Hes1 and Hey1 expression. RNA was isolated from the cultures 48 hours after DAPT treatment, and Hes1 and Hey1 cDNA expression levels were analyzed by PCR or qPCR.
RT-PCR and RT-qPCR were performed as follows. Neurosphere cultures were pelleted and tumor tissues from subcutaneous xenografts were broken into a powder using a BioPulverizer (Biospec Products, Inc., Bartlesville, Okla.). RNA was isolated from neurosphere cultures and frozen tumor samples using TRIzol Reagent (Invitrogen, Carlsbad, Calif.), following the manufacturer's protocol. RNA was treated with DNase I, Amplification Grade (Invitrogen, Carlsbad, Calif.). cDNA was made using the SuperScript II Reverse Transcription (RT) Kit with Oligo(dT)12-18 primers (Invitrogen, Carlsbad, Calif.), followed by a 20 minute incubation at 37° C. with RNaseH. PCR was carried out using Taq DNA Polymerase, following the manufacturer's protocol (Invitrogen, Carlsbad, Calif.). Real time qPCR was carried out using QuantiTect SYBR Green (QIAGEN, Valencia, Calif.). Hes1 and β-Actin primers were developed using Primer3 (Rozen and Skaletsky, Methods Mol Biol 2000; 132: 365-86). Hes1 forward primer: 5″ […] 3″ (SEQ ID NO:1) and reverse primer: 5″ […] 3″ (SEQ ID NO:2). β-Actin (RT-PCR) forward primer: 5″[…] 3″ (SEQ ID NO:3) and reverse primer: 5″ […] 3″ (SEQ ID NO:4). β-Actin (qRT-PCR) forward primer: 5″[…] 3″ (SEQ ID NO:5) and reverse primer: 5″ […] (SEQ ID NO:6). Primers for Hey1 (Osipo et al., Oncogene 2008; 27: 5019-32), Notch1 (Lefort et al., Genes Dev 2007; 21: 562-77), Notch2 (O'Neill et al., Am J Pathol 2007; 171: 1023-36), Notch3 (Buchler et al., Ann Surg 2005; 242: 791-800, discussion −1) and Notch4 (Buchler et al., Ann Surg 2005; 242: 791-800, discussion −1) were previously published, RT-PCR products were analyzed on 2% agarose gels. tantification of band intensity for DAPT treated lines was determined using ImageJ (Rasband W S. ImageJ, U.S. National Institutes of Health, Bethesda, Md., USA. 1997-2004). cDNA levels for qRT-PCR products were calculated using the PFAFFL method (Pfaffl, Nucleic Acids Res 2001; 29: e45).

Row | SMILES | concentration of TMZ in the cerebral spinal fluid [1] | recovery: increase in neurospheres (GS7-2-NICD) [fold] | recovery: increase in neurospheres (U87NS-NICD) [fold] | recovery: increase in neurospheres (GS7-2-pMIG) [fold] | recovery: increase in the number of neurospheres (GS8-26; day 20 relative to day 10, DAPT 5 μM) [fold] | secondary neurosphere formation, TMZ-only treated culture relative to TMZ+DAPT treated culture (GS8-26; day 30, P<0.001) [fold] | average number of cells per neurosphere capable of self-renewal (GS8-26; secondary neurospheres divided by recovery neurospheres) [cells per neurosphere] | decrease of Hey1 mRNA level (Hey1; U87NS, DAPT 1 μM) [%] | Hey1 expression (qRT-PCR) (Hey1; U87NS-NICD) | Hey1 expression (qRT-PCR) (Hey1; U87NS-pMIG) | decrease of Hey1 mRNA level (Hey1; U373NS, DAPT 5 μM) [%]
1 | Cn1nnc2c(C(N)=O)ncn2c1=O [TMZ, temozolomide] | about 5 μM | 2.6 | 2.3 | 2.1 | 1.6 | 25 | 31 |  |  |  | 
2 | C[C@H](NC(=O)Cc1cc(F)cc(F)c1)C(=O)N[C@H](C(=O)OC(C)(C)C)c1ccccc1 [DAPT, N-[N-(3,5-difluorophenacetyl)-L-alanyl]-(S)-phenylglycine t-butyl ester] |  |  |  |  |  |  |  | 76 | minimal decrease | decreased | 51
